Target: T1, recombinant human MIF protein (Homo sapiens, UniProt P14174)
T1 construct: commercial recombinant human MIF (PeproTech), amine-coupled to CM7 chip; homotrimer
T1 sequence (P14174 2-115): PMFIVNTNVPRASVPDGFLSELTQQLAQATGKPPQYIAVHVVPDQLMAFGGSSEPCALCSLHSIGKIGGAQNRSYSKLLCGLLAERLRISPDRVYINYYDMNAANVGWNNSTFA
Assay: surface plasmon resonance (Biacore T200)
Assay type: binding

Kd: 725 nM
SMILES: Cn1c2ccccc2c2cc(C3=NCCc4c3[nH]c3ccccc43)ccc21 [compound 7, 1-(9′-methyl-3′-carbazole)-3,4-dihydro-β-carboline]
